Test results as given in patent US10202391B2, “Chemical compounds” (AstraZeneca AB, priority 2015, dated 2019).
pIC50: −log10 of the molar value.

How the values were obtained:
ERK2 = biological target: T1, ERK2 (Homo sapiens, UniProt P28482); test: ERK2 Rapidfire Mass Spectrometry Inhibition of Catalysis Assay; assay type: biochemical; conditions: 1.2 nM ERK2, 16 μM Erktide, 120 μM ATP (measured Km), 15 minute pre-incubation; read-out: ERK2 Mass Spectrometry Enzyme IC50
T1 construct: made in house
T1 sequence (P28482 whole entry): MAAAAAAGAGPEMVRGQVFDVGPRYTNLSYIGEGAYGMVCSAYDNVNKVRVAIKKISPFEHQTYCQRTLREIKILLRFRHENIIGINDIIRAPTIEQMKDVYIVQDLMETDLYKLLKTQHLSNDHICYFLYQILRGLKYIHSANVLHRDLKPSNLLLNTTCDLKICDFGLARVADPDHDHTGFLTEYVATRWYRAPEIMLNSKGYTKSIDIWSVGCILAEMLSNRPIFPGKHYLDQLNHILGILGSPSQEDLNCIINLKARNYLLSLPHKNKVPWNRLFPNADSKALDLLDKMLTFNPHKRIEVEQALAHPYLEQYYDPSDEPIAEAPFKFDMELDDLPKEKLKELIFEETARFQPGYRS
Procedure: (§1) All compounds or DMSO (dimethyl sulphoxide) for the ERK2 Mass Spectrometry and A375 phospho-p90RSK assays were dispensed from source plates containing compounds at 10 mM in 100% (v/v) DMSO or 100% DMSO, directly into assay plates using an Echo 555 Acoustic dispenser (Labcyte Inc™). Depending on the assay, two separate plate preparations were followed. In Workflow A, 10 mM compound stocks were diluted 1:100 using a fixed-tip 96-head Agilent VPrep liquid handler (Agilent Technologies, Santa Clara, Calif.) to give four intermediate dilutions (10 mM, 100 μM, 1 μM, 10 nM). In Workflow B, 10 mM compound stocks were diluted 1:10 using a Tecan Freedom Evo (Tecan Group Ltd., Switzerland), and then 1:100 using the Echo 555 and Labcyte LX to produce three intermediate dilutions across three Labcyte qualified source plates (1 mM, 10 μM, 100 nM). These intermediate dilution plates were then used by the Echo 555 to generate final assay-ready compound plates with a 12 point dose range (10, 3, 1, 0.25, 0.1, 0.03, 0.01, 0.0025, 0.001, 0.0003, 0.0001, 0.0000125 μM) in order to calculate compound IC50s, with a total DMSO concentration in the assay of 1%. For the ERK2 Mass Spectrometry assay Workflow B was used. For the A375 phospho-p90RSK cell assay, the intermediate 1:100 dilution plate described in Workflow A was used by the Echo to dispense compounds and DMSO directly into the cell plates with a 12 point dose range (30, 10, 3.125, 1.25, 0.3, 0.1, 0.03125, 0.0125, 0.003, 0.001, 0.0003125, 0.00003 μM) in order to calculate compound IC50's, with a total DMSO concentration in the assay of 0.3%.
ERK2 Rapidfire Mass Spectrometry Inhibition of Catalysis Assay
MEK U911-activated ERK2 protein was expressed and purified in-house. Enzyme and substrate solutions were made up in assay buffer consisting of 50 mM Tris (pH 7.5), 10 mM MgCl2, 0.1 mM EGTA (ethylene glycol tetraacetic acid), 10 mM DTT (dithiothreitol) and 0.01% (v/v) CHAPS (3-[(3-Cholamidopropyl)dimethylammonio]-1-propanesulfonate). 1.2 nM ERK2 protein was prepared in assay buffer and 10 μl was dispensed into each well of a polypropylene, 384-well plate (#781201, Greiner) containing test and reference control compounds. […] The reaction was allowed to progress for 20 minutes at room temperature before being quenched by the addition of 80 al 1% (v/v) formic acid. The assay plates were then run on the RapidFire Mass Spectrometry platform (Agilent) to measure substrate (unphosphorylated Erktide) and product (phosphorylated Erktide) levels. Data was analysed and IC50's (half maximal inhibitory concentration) were calculated using Genedata Screener® software.

A549 xenograft = test: Tumour growth inhibition in A549 xenograft model; assay type: in vivo, mice; conditions: selumetinib 25 mg/kg BiD or Example 18a 25 mg/kg QD, peroral, continuously for 3 weeks, relative to vehicle
Procedure: A549 is a human non small cell lung cancer line carrying an oncogenic mutation in the KRAS gene (G12S). Female nude mice (Harlan, UK) were implanted subcutaneously (s.c.) on the left flank, with 5×10^6 A549 cells (ATCC) per mouse.
Tumour growth was monitored by twice weekly calliper measurement and volumes calculated using elliptical formula (pi/6×width×width×length). Once tumours had reached a volume of ˜200-300 mm^3 animals were randomised into groups of 7-11 and were treated with a continuous combination schedule of selumetinib (ARRY-142886) 25 mg/kg BiD and Example 18a 25 mg/kg QD (four hours after first selumetinib dose), both were dosed by peroral route. Tumour volumes were measured twice weekly after dosing commenced.
Selumetinib was formulated in HPMC/Tween (0.5% Methocel [hydroxypropyl methocellulose]/0.1% Polysorbate 80), the suspension was stirred over night. Example 18a was formulated in 10% DMSO, 90% of a 40% kleptose solution (Kleptose is sourced from Roquette—Pharma [Trademarked] Hydroxypropyl betacyclodextrin—suitable for in-vivo use and formulations).
Studies were performed in the A549 xenograft model. Selumetinib was dosed twice daily (BiD) 8 hours apart and Example 18a was dosed once daily (QD) 4 hours after the first selumetinib dose. Both compounds were dosed continuously for 3 weeks. Both vehicles were dosed in the vehicle group.

[1] = tested on: phospho-p90RSK in A375 cell line; test: A375 Phospho-p90RSK Cellular Assay; assay type: cell-based, human; conditions: A375 cells, 2 hours incubation
Procedure: as §1
A375 Phospho-p90RSK Cellular Assay
A375 cells were cultured in cell media composed of DMEM (Dulbecco's modified Eagle's medium), 10% (v/v) Foetal Calf Serum and 1% (v/v) L-Glutamine. After harvesting, cells were dispensed into black, 384-well Costar plates (#3712, Corning) to give 2400 cells per well in a total volume of 40 μl cell media, and were incubated overnight at 37° C., 90% relative humidity and 5% CO2 in a rotating incubator. Test compounds and reference controls were dosed directly into the cell plates using a Labcyte Echo 555 acoustic dispenser. The cell plates were then incubated for 2 hours at 37° C. before being fixed by the addition of 20 μl 12% formaldehyde in PBS/A (4% final concentration), followed by a 20 minute room temperature incubation, and then a 2× wash with 150 μl PBS/A (phosphate buffered saline containing albumin) using a BioTek ELx405 platewasher. Cells were permeabilised with 20 μl 0.1% Triton X-100 in PBS/A for 20 minutes at room temperature, and then washed 1× with 100 μl PBS/A. Primary phospho-p90RSK (Thr359) (D1E9) rabbit monoclonal antibody (#8753, Cell Signaling Technology) was diluted 1:1000 in assay buffer (0.05% (v/v) Tween, 5% (v/v) Foetal Calf Serum, in PBS/A), 20 μl added per well, and plates were incubated at 4° C. overnight. Cell plates were washed 2× with 200 μl PBS/T (phosphate buffered saline containing Tween-20), then 20 μl 1:500 dilution in assay buffer of Alexa Fluor® 647 goat anti-rabbit IgG secondary antibody (#A31573, Molecular Probes, Life Technologies), with a 1:5000 dilution of Hoechst 33342, was added per well. Following a 90 minute incubation at room temperature, plates were washed 2× with 200 μl PBS/T, and 40 μl PBS/A was added per well. Stained cell plates were covered with black lid seals, and then read on a Cellomics ArrayScan™ VTI imaging platform (Thermo Scientific), using an XF53 filter with 10× objective, with a LED light source set-up to analyse nuclear staining with Hoechst 33342 (405 nm) and secondary antibody staining of phospho-p90RSK (647 nm). Data was analysed and IC50's were calculated using Genedata Screener® software.

Row | pIC50 (ERK2) | pIC50 [1] | pIC50 ([1]; Homo sapiens, A-375) | SMILES | tumour growth, single agent (A549 xenograft)
1 | 9.22 | 8.13 | – | COC[C@H]1Cn2cc(-c3nc(Nc4ccnn4C)ncc3C)nc2C(=O)N1Cc1ccc(F)c(F)c1 [Example 18a, (R)-7-(3,4-Difluorobenzyl)-6-(methoxymethyl)-2-(5-methyl-2-((1-methyl-1H-pyrazol-5-yl)amino)pyrimidin-4-yl)-6,7-dihydroimidazo[1,2-a]pyrazin-8(5H)-one Ethanesulfonic acid adduct Form 1] | reduced tumour growth relative to vehicle only control
2 | 9.05 | – | 6.89 | Cc1cnc(Nc2ccnn2C)nc1-c1cn2c(n1)C(=O)N(Cc1cc(C(F)(F)F)ccn1)[C@@H](C)C2 [Example 29, (S)-6-Methyl-2-(5-methyl-2-((1-methyl-1H-pyrazol-5-yl)amino)pyrimidin-4-yl)-7-((4-(trifluoromethyl)pyridin-2-yl)methyl)-6,7-dihydroimidazo[1,2-a]pyrazin-8(5H)-one] | –
3 | 9.10 | – | 6.85 | Cc1cnc(Nc2ccnn2C)nc1-c1cn2c(n1)C(=O)N(Cc1cc(C(F)F)ccn1)[C@@H](C)C2 [Example 31, (S)-7-((4-(Difluoromethyl)pyridin-2-yl)methyl)-6-methyl-2-(5-methyl-2-((1-methyl-1H-pyrazol-5-yl)amino)pyrimidin-4-yl)-6,7-dihydroimidazo[1,2-a]pyrazin-8(5H)-one] | –
4 | 8.96 | – | 6.92 | COC[C@H]1Cn2cc(-c3nc(Nc4ccnn4C)ncc3C)nc2C(=O)N1Cc1cccc(C(F)F)n1 [Example 16, (R)-7-((6-(Difluoromethyl)pyridin-2-yl)methyl)-6-(methoxymethyl)-2-(5-methyl-2-((1-methyl-1H-pyrazol-5-yl)amino)pyrimidin-4-yl)-6,7-dihydroimidazo[1,2-a]pyrazin-8(5H)-one] | –
5 | 8.96 | – | 7.26 | C[C@H]1Cn2cc(-c3nc(Nc4ccnn4C)ncc3Cl)nc2C(=O)N1Cc1cccc(C(F)(F)F)n1 [Example 10] | –
6 | 9.15 | – | 7.07 | C[C@H]1Cn2cc(-c3ccnc(Nc4ccnn4C)n3)nc2C(=O)N1Cc1cccc(Cl)c1 [Example 2, (S)-7-(3-Chlorobenzyl)-6-methyl-2-(2-((1-methyl-1H-pyrazol-5-yl)amino)pyrimidin-4-yl)-6,7-dihydroimidazo[1,2-a]pyrazin-8(5H)-one] | –
